# Results reported in patent US20060166900A1, “Salt of morphine-6-glucuronide” (CeNeS Limited, priority 2002, published 2006).
# What was measured:
# Format in all cases: physicochemical
# [1] = Colour of solution by visible spectrophotometry on storage (Example 3); conditions: 5% w/v solution in water
# Method: Colour of solution by UV spectrophotometry.
# (§1) Each test material was stored between 2-8*C prior to placing on stability. Each material was sub-divided into 900 mg aliquots, transferred to brown opaque HDPE plastic bottles and flushed with Argon prior to sealing. Sufficient samples were provided for each time point as well as spares for each storage condition. The samples were placed in appropriate incubators previously commissioned at storage conditions 25° C./60% RH, 40° C./75% RH and 60° C.
# Colour by Visible Spectrophotometry
# A 5% w/v solution of test material was prepared in water and the absorbance measured at 420 nm in a 1 cm silica cell using a Unicam UV4 Visible/UV spectrophotometer.
# [2] = Visual appearance on storage (Example 3)
# Method: as §1
# The samples were stored for analysis according to the following table: […]
# [3] = Stability indicating HPLC assay and related substances on storage (Example 3)
# Method: Assay (% w/w) and related substances determination
# as §1
# Testing Procedures Test for Identity Content and Impurities
# Testing was performed in duplicate (2×25 mg) in accordance with a stability indicating HPLC assay method. The assay results were reported as M6G as is, M6G as the anhydrous, solvent free material and the anhydrous solvent free material corrected for the salt form using the relevant conversion factor.
# [4] = Water content by Karl Fisher analysis on storage (Example 3)
# Method: Water content (% w/w) by Karl Fisher analysis
# as §1
# Water Content by Karl Fisher Analysis
# Water content was determined in duplicate on an aliquot of equilibrated material (approximately 100 mg) using a Tritrino 720 KFS Titrator.
structure (smiles),measurement,setting,value
CN1CCC23c4c5ccc(O)c4OC2C(OC2OC(C(=O)O)C(O)C(O)C2O)C=CC3C1C5.CN1CCC23c4c5ccc(O)c4OC2C(OC2OC(C(=O)O)C(O)C(O)C2O)C=CC3C1C5.O=C(O)C=CC(=O)O (stereo not drawn) [Morphine-6-glucuronide fumarate],Colour,"[1]; 1 month, 25° C./60% RH",0.034 Abs@420 nm
same,Colour,"[1]; 1 month, 40° C./75% RH",0.264 Abs@420 nm
same,Colour,"[1]; 1 month, 60° C.",0.794 Abs@420 nm
same,Colour,"[1]; 3 months, 25° C./60% RH",0.141 Abs@420 nm
same,Colour,"[1]; 3 months, 40° C./75% RH",1.008 Abs@420 nm
same,Colour,[1]; Initial,0.016 Abs@420 nm
same,Appearance,"[2]; 1 month, 25° C./60% RH",White crystalline powder
same,Appearance,"[2]; 1 month, 40° C./75% RH",Pale yellow crystalline powder
same,Appearance,"[2]; 1 month, 60° C.",Yellow crystalline powder
same,Appearance,"[2]; 3 months, 25° C./60% RH",Pale yellow crystalline powder
same,Appearance,"[2]; 3 months, 40° C./75% RH",Yellow crystalline powder
same,Appearance,[2]; Initial,White crystalline powder
same,Known Related Substances HN33177,"[3]; 1 month, 25° C./60% RH",0.80%
same,Known Related Substances HN75083,"[3]; 1 month, 25° C./60% RH",0.03%
same,"M6G Assay, Anhydrous basis","[3]; 1 month, 25° C./60% RH",88.23 % w/w
same,"M6G Assay, As is basis","[3]; 1 month, 25° C./60% RH",81.96 % w/w
same,"M6G Assay, Corrected for the salt form","[3]; 1 month, 25° C./60% RH",99.32 % w/w
same,Total Known,"[3]; 1 month, 25° C./60% RH",0.83%
same,Total Related Substances,"[3]; 1 month, 25° C./60% RH",0.91%
same,Total Unknown,"[3]; 1 month, 25° C./60% RH",0.08%
same,Known Related Substances HN33177,"[3]; 1 month, 40° C./75% RH",0.70%
same,Known Related Substances HN67003,"[3]; 1 month, 40° C./75% RH",0.58%
same,Known Related Substances HN75076,"[3]; 1 month, 40° C./75% RH",0.03%
same,Known Related Substances HN75083,"[3]; 1 month, 40° C./75% RH",0.02%
same,Known Related Substances Morphine,"[3]; 1 month, 40° C./75% RH",0.10%
same,"M6G Assay, Anhydrous basis","[3]; 1 month, 40° C./75% RH",84.17 % w/w
same,"M6G Assay, As is basis","[3]; 1 month, 40° C./75% RH",77.62 % w/w
same,"M6G Assay, Corrected for the salt form","[3]; 1 month, 40° C./75% RH",94.76 % w/w
same,Total Known,"[3]; 1 month, 40° C./75% RH",1.43%
same,Total Related Substances,"[3]; 1 month, 40° C./75% RH",2.60%
same,Total Unknown,"[3]; 1 month, 40° C./75% RH",1.17%
same,Known Related Substances HN33177,"[3]; 1 month, 60° C.",0.62%
same,Known Related Substances HN67003,"[3]; 1 month, 60° C.",0.97%
same,Known Related Substances HN75076,"[3]; 1 month, 60° C.",0.06%
same,Known Related Substances HN75083,"[3]; 1 month, 60° C.",0.02%
same,Known Related Substances Morphine,"[3]; 1 month, 60° C.",0.24%
same,"M6G Assay, Anhydrous basis","[3]; 1 month, 60° C.",82.11 % w/w
same,"M6G Assay, As is basis","[3]; 1 month, 60° C.",77.33 % w/w
same,"M6G Assay, Corrected for the salt form","[3]; 1 month, 60° C.",92.44 % w/w
same,Total Known,"[3]; 1 month, 60° C.",1.91%
same,Total Related Substances,"[3]; 1 month, 60° C.",3.85%
same,Total Unknown,"[3]; 1 month, 60° C.",1.94%
same,Known Related Substances HN33177,"[3]; 3 months, 25° C./60% RH",0.75%
same,Known Related Substances HN67003,"[3]; 3 months, 25° C./60% RH",0.26%
same,Known Related Substances HN75083,"[3]; 3 months, 25° C./60% RH",0.10%
same,Known Related Substances Morphine,"[3]; 3 months, 25° C./60% RH",0.07%
same,"M6G Assay, Anhydrous basis","[3]; 3 months, 25° C./60% RH",87.15 % w/w
same,"M6G Assay, As is basis","[3]; 3 months, 25° C./60% RH",81.20 % w/w
same,"M6G Assay, Corrected for the salt form","[3]; 3 months, 25° C./60% RH",98.11 % w/w
same,Total Known,"[3]; 3 months, 25° C./60% RH",1.18%
same,Total Related Substances,"[3]; 3 months, 25° C./60% RH",1.90%
same,Total Unknown,"[3]; 3 months, 25° C./60% RH",0.72%
same,Known Related Substances HN33177,"[3]; 3 months, 40° C./75% RH",0.57%
same,Known Related Substances HN67003,"[3]; 3 months, 40° C./75% RH",1.56%
same,Known Related Substances HN75076,"[3]; 3 months, 40° C./75% RH",0.40%
same,Known Related Substances Morphine,"[3]; 3 months, 40° C./75% RH",0.45%
same,"M6G Assay, Anhydrous basis","[3]; 3 months, 40° C./75% RH",79.38 % w/w
same,"M6G Assay, As is basis","[3]; 3 months, 40° C./75% RH",71.64 % w/w
same,"M6G Assay, Corrected for the salt form","[3]; 3 months, 40° C./75% RH",89.37 % w/w
same,Total Known,"[3]; 3 months, 40° C./75% RH",2.98%
same,Total Related Substances,"[3]; 3 months, 40° C./75% RH",9.07%
same,Total Unknown,"[3]; 3 months, 40° C./75% RH",6.09%
same,drop in assay compared to the initial values,"[3]; 3 months, 40° C./75% RH",around 10%
same,Known Related Substances HN33177,[3]; Initial,0.77%
same,Known Related Substances HN67003,[3]; Initial,0.04%
same,Known Related Substances HN75083,[3]; Initial,0.05%
same,"M6G Assay, Anhydrous basis",[3]; Initial,89.44 % w/w
same,"M6G Assay, As is basis",[3]; Initial,84.11 % w/w
same,"M6G Assay, Corrected for the salt form",[3]; Initial,100.71 % w/w
same,Total Known,[3]; Initial,0.86%
same,Total Related Substances,[3]; Initial,0.95%
same,Total Unknown,[3]; Initial,0.09%
same,Moisture,"[4]; 1 month, 25° C./60% RH",7.26 % w/w
same,Moisture,"[4]; 1 month, 40° C./75% RH",7.94 % w/w
same,Moisture,"[4]; 1 month, 60° C.",5.98 % w/w
same,Moisture,"[4]; 3 months, 25° C./60% RH",8.00 % w/w
same,Moisture,"[4]; 3 months, 40° C./75% RH",10.89 % w/w
same,Moisture,[4]; Initial,6.80 % w/w
